Several values for one entry are separate records, joined by “and”; a condition that tells them apart may be missing. Identical values can stand only once. Inconclusive results and toxic doses are left out. The calls were made as follows: active = survival T/C of 150% or more; inactive = T/C below 125% in these data.
Test system: P388 leukemia ip, CD2F1 mice, survival T/C
Assay: NCI In Vivo Anticancer Drug Screen. Data for tumor model P388 Leukemia (intraperitoneal) in CD2F1 (CDF1) mice
Settings: endpoint: median survival time, higher = longer survival
How it was run: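 Mice carrying the transplanted tumor received test compound or vehicle. Survival was recorded in each group, and the value is the treated-group measurement divided by that of the vehicle-treated control group.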

[1] = dose: 50.0 mg/kg/injection, schedule: Q01DX005 (ip), vehicle: saline with Tween-80
[2] = dose: 60.0 mg/kg/injection, schedule: Q01DX005 (ip), vehicle: Klucel + Tween-80
[3] = dose: 120.0 mg/kg/injection, schedule: Q01DX005 (ip), vehicle: Klucel + Tween-80
[4] = dose: 240.0 mg/kg/injection, schedule: Q01DX005 (ip), vehicle: Klucel + Tween-80

Measured: T/C

C#CC(OC(=O)NC1CCCCC1)(c1ccccc1)c1ccccc1
active: dose: 33.0 mg/kg/injection, schedule: Q01DX009 (ip), vehicle: saline with Tween-80 163 % of control | dose: 75.0 mg/kg/injection, schedule: Q04DX003 (ip), vehicle: saline with Tween-80 163 % of control
inactive: dose: 4.4 mg/kg/injection, schedule: Q01DX009 (ip), vehicle: saline with Tween-80 100 % of control | dose: 6.6 mg/kg/injection, schedule: Q01DX009 (ip), vehicle: saline with Tween-80 98 % of control | dose: 10.0 mg/kg/injection, schedule: Q01DX009 (ip), vehicle: saline with Tween-80 93 % of control | dose: 15.0 mg/kg/injection, schedule: Q01DX009 (ip), vehicle: saline with Tween-80 100 % of control | dose: 22.0 mg/kg/injection, schedule: Q04DX003 (ip), vehicle: saline with Tween-80 118 % of control | dose: 25.0 mg/kg/injection, schedule: Q04DX003 (ip), vehicle: saline with Tween-80 108 % of control | dose: 33.0 mg/kg/injection, schedule: Q04DX003 (ip), vehicle: saline with Tween-80 122 % of control | dose: 50.0 mg/kg/injection, schedule: Q01DX009 (ip), vehicle: saline with Tween-80 102 % of control

O=C1CN(c2cccc(Cl)c2)C(=O)CN1/N=C/c1ccco1
inactive: [1] 109 % of control | dose: 100.0 mg/kg/injection, schedule: Q01DX005 (ip), vehicle: saline with Tween-80 107 % of control | dose: 200.0 mg/kg/injection, schedule: Q01DX005 (ip), vehicle: saline with Tween-80 98 % of control

c1ccc(OCC2CO2)c(OCC2CO2)c1 (stereo unspecified)
inactive: dose: 1.88 mg/kg/injection, schedule: Q01DX005 (ip), vehicle: saline with Tween-80 100 % of control | dose: 3.75 mg/kg/injection, schedule: Q01DX005 (ip), vehicle: saline with Tween-80 100 % of control | dose: 7.5 mg/kg/injection, schedule: Q01DX005 (ip), vehicle: saline with Tween-80 99 % of control | dose: 15.0 mg/kg/injection, schedule: Q01DX005 (ip), vehicle: saline with Tween-80 111 % of control and 114 % of control and 121 % of control | dose: 25.0 mg/kg/injection, schedule: Q01DX005 (ip), vehicle: saline with Tween-80 104 % of control | [1] 112 % of control
active: dose: 240.0 mg/kg/injection, schedule: Q01DX005 (ip), vehicle: saline with Tween-80 156 % of control and 157 % of control and 201 % of control

COC1=C(OC)C(=O)C(SCCCc2ccccc2)=CC1=O
inactive: dose: 12.5 mg/kg/injection, schedule: Q04DX002 (ip), vehicle: saline with Tween-80 114 % of control | dose: 25.0 mg/kg/injection, schedule: Q04DX002 (ip), vehicle: saline with Tween-80 112 % of control | dose: 50.0 mg/kg/injection, schedule: Q04DX002 (ip), vehicle: saline with Tween-80 122 % of control

CC(=O)OC1C(=O)C2C(CC=C3CC(O)CC(O)C32C)C2CCC(C(C)C3CC(C)C(C)(C)O3)C12C (stereo unspecified)
inactive: dose: 50.0 mg/kg/injection, schedule: Q01DX009 (ip), vehicle: saline 97 % of control | dose: 100.0 mg/kg/injection, schedule: Q01DX001 (ip), vehicle: Klucel (hydroxypropylcellulose) (HPC) 100 % of control | dose: 100.0 mg/kg/injection, schedule: Q01DX009 (ip), vehicle: saline 101 % of control | dose: 200.0 mg/kg/injection, schedule: Q01DX001 (ip), vehicle: Klucel (hydroxypropylcellulose) (HPC) 97 % of control | dose: 200.0 mg/kg/injection, schedule: Q01DX009 (ip), vehicle: saline 94 % of control | dose: 400.0 mg/kg/injection, schedule: Q01DX001 (ip), vehicle: Klucel (hydroxypropylcellulose) (HPC) 96 % of control

Cc1[nH]ccc2c(C)c3nc4ccc(O)cc4c3cc12
active: dose: 40.0 mg/kg/injection, schedule: Q04DX002 (ip), vehicle: water 157 % of control

Cc1ccc(NC(=S)SCc2ccc(Cl)c(Cl)c2)cc1Cl
inactive: dose: 50.0 mg/kg/injection, schedule: Q01DX009 (ip), vehicle: suspension in saline 112 % of control | dose: 100.0 mg/kg/injection, schedule: Q01DX009 (ip), vehicle: suspension in saline 115 % of control | dose: 200.0 mg/kg/injection, schedule: Q01DX009 (ip), vehicle: suspension in saline 116 % of control

CCOC(=O)c1cnc2c(C(F)(F)F)cccc2c1Nc1ccc2c(c1)OCO2
inactive: [2] 100 % of control | [3] 103 % of control | [4] 97 % of control

CCCCN(C)/N=N/c1[nH]ncc1C(=O)OCC
inactive: dose: 100.0 mg/kg/injection, schedule: Q01DX009 (ip), vehicle: other 120 % of control | dose: 200.0 mg/kg/injection, schedule: Q01DX009 (ip), vehicle: other 116 % of control

Clc1ccc(-c2cc(-c3cc(-c4ccc(Cl)cc4Cl)n[nH]3)[nH]n2)c(Cl)c1
inactive: [2] 100 % of control | [3] 98 % of control | [4] 90 % of control
